{
  "source": "patent US20250302798A1",
  "about": "“STING INHIBITORS AND USE THEREOF” (CARMEL HAIFA UNIVERSITY ECONOMIC CORPORATION LTD., priority 2022, published 2025)",
  "system": "STING-IFN-β axis",
  "assay": "Zymosan A peritonitis in vivo, macrophage cytokines and STING pathway Western blotting",
  "parameters": "species or system mice",
  "conditions": "50 μM compound, 100 μl/mouse",
  "description": "FIGS. 6A-6D include graphs and an image showing that compound 2.1 activates in vivo the STING-IFN-β axis and enhances biased cytokine production by macrophages. Mice were injected with zymosan A for 66 h. Twenty-four 24 post peritonitis initiation (PPI) the mice were injected with DMSO (0.4%), 4 mg/kg DMXAA or 50 μM compound 2.1 (100 μl/mouse). Macrophages were collected from the spleen (6A-6C), or peritoneum (6D) and incubated for 24 h with LPS (1 μg/ml) or vehicle (6A-6C) or lysed and analyzed by Western blotting immediately for the STING pathway (6D). Culture supernatants from incubated macrophages were analyzed by ELISA for the secretion of TNFα (6A), IL-10 (6B), and IL-6 (6C). Results are mean±SEM of 3 experiments (6A-6C) or representative blots. One-way ANOVA, and Tukey HSD test * P≤0.05, ** P≤0.01.",
  "data": [
    {"smiles": "c1ccc(CSc2nnc(CCCCCCCCc3nnc(SCc4ccccc4)o3)o2)cc1", "note": "[Compound 2.1, 2-(benzylsulfanyl)-5-{8-[5-(benzylsulfanyl)-1,3,4-oxadiazol-2-yl]octyl}-1,3,4-oxadiazole]", "values": [
      {"measurement": "STING-IFN-β axis in vivo", "setting": "24 h post peritonitis initiation, peritoneal macrophages", "result": "activates"},
      {"measurement": "Biased cytokine production by macrophages (TNFα, IL-10, IL-6)", "setting": "spleen macrophages ex vivo ± LPS 1 μg/ml 24 h", "result": "enhances"}
    ]}
  ]
}
